Laboratory results published in BindingDB's records for doi:10.1021/jm020955n (Johannes Gutenberg-Universität, 2002).

Biological target: Glutamate receptor ionotropic, NMDA 1 glycine site (Sus scrofa)
Test: Tested for the affinity for the glycine binding site of the N-methyl-D-aspartate glutamate receptor using pig brain membranes in binding assay with [3H]-MDL- 105,519

| Ki | Structure (SMILES) |
| --- | --- |
| 0.31 µM | Cc1c(O)n(-c2ccccc2)c(=O)n1Cc1c(C(=O)O)[nH]c2cc(Cl)cc(Cl)c12 [4,6-Dichloro-3-(5-methyl-2,4-dioxo-3-phenyl-imidazolidin-1-ylmethyl)-1H-indole-2-carboxylic acid] |
| 0.12 µM | O=C(O)c1[nH]c2cc(Cl)cc(Cl)c2c1Cn1cc(O)n(-c2ccc(Cl)cc2)c1=O [4,6-Dichloro-3-[3-(4-chloro-phenyl)-2,4-dioxo-imidazolidin-1-ylmethyl]-1H-indole-2-carboxylic acid] |
| 0.036 µM | Cc1ccc(-n2c(O)cn(Cc3c(C(=O)O)[nH]c4cc(Cl)cc(Cl)c34)c2=O)cc1 [4,6-Dichloro-3-(2,4-dioxo-3-p-tolyl-imidazolidin-1-ylmethyl)-1H-indole-2-carboxylic acid] |
| 1.05 µM | CC(C)n1c(O)cn(Cc2c(C(=O)O)[nH]c3cc(Cl)cc(Cl)c23)c1=O [4,6-Dichloro-3-(3-isopropyl-2,4-dioxo-imidazolidin-1-ylmethyl)-1H-indole-2-carboxylic acid] |
| 0.13 µM | O=C(O)c1[nH]c2cc(Cl)cc(Cl)c2c1Cn1cc(O)n(C2CCCCC2)c1=O [4,6-Dichloro-3-(3-cyclohexyl-2,4-dioxo-imidazolidin-1-ylmethyl)-1H-indole-2-carboxylic acid] |
| 0.085 µM | O=C(O)c1[nH]c2cc(Cl)cc(Cl)c2c1Cn1cc(O)n(-c2cccc(Cl)c2)c1=O [4,6-Dichloro-3-[3-(3-chloro-phenyl)-2,4-dioxo-imidazolidin-1-ylmethyl]-1H-indole-2-carboxylic acid] |
| 1 µM | CCn1c(O)cn(Cc2c(C(=O)O)[nH]c3cc(Cl)cc(Cl)c23)c1=O [4,6-Dichloro-3-(3-ethyl-2,4-dioxo-imidazolidin-1-ylmethyl)-1H-indole-2-carboxylic acid] |
| 0.058 µM | O=C(O)c1[nH]c2cc(Cl)cc(Cl)c2c1CN1CCN(c2ccccc2)C1=O [4,6-Dichloro-3-(2-oxo-3-phenyl-imidazolidin-1-ylmethyl)-1H-indole-2-carboxylic acid] |
| 0.014 µM | O=C(NCc1c(C(=O)O)[nH]c2cc(Cl)cc(Cl)c12)Nc1ccccc1 [4,6-Dichloro-3-[(3-phenyl-ureido)-methyl]-1H-indole-2-carboxylic acid] |
| 0.053 µM | O=C(O)c1[nH]c2cc(Cl)cc(Cl)c2c1Cn1cc(O)n(-c2ccc(F)cc2)c1=O [4,6-Dichloro-3-[3-(4-fluoro-phenyl)-2,4-dioxo-imidazolidin-1-ylmethyl]-1H-indole-2-carboxylic acid] |
| 0.99 µM | O=C(O)c1[nH]c2cc(Cl)cc(Cl)c2c1CNS(=O)(=O)c1ccccc1 [3-(Benzenesulfonylamino-methyl)-4,6-dichloro-1H-indole-2-carboxylic acid] |
| 0.022 µM | O=C(O)c1[nH]c2cc(Cl)cc(Cl)c2c1Cn1cc(O)n(-c2ccccc2)c1=O [4,6-Dichloro-3-(2,4-dioxo-3-phenyl-imidazolidin-1-ylmethyl)-1H-indole-2-carboxylic acid] |
| 0.58 µM | O=C(O)c1[nH]c2cc(Cl)cc(Cl)c2c1Cn1cc(O)n(-c2ccccc2)c1=S [4,6-Dichloro-3-(4-oxo-3-phenyl-2-thioxo-imidazolidin-1-ylmethyl)-1H-indole-2-carboxylic acid] |
| 0.1 µM | COc1ccc(-n2c(O)cn(Cc3c(C(=O)O)[nH]c4cc(Cl)cc(Cl)c34)c2=O)cc1 [4,6-Dichloro-3-[3-(4-methoxy-phenyl)-2,4-dioxo-imidazolidin-1-ylmethyl]-1H-indole-2-carboxylic acid] |
| 92 µM | O=C(O)c1[nH]c2cc(Cl)cc(Cl)c2c1CNCc1ccccc1 [3-(Benzylamino-methyl)-4,6-dichloro-1H-indole-2-carboxylic acid] |
| 0.15 µM | CC(=O)c1ccc(-n2c(O)cn(Cc3c(C(=O)O)[nH]c4cc(Cl)cc(Cl)c34)c2=O)cc1 [3-[3-(4-Acetyl-phenyl)-2,4-dioxo-imidazolidin-1-ylmethyl]-4,6-dichloro-1H-indole-2-carboxylic acid] |
| 0.057 µM | CC(=O)c1cccc(-n2c(O)cn(Cc3c(C(=O)O)[nH]c4cc(Cl)cc(Cl)c34)c2=O)c1 [3-[3-(3-Acetyl-phenyl)-2,4-dioxo-imidazolidin-1-ylmethyl]-4,6-dichloro-1H-indole-2-carboxylic acid] |
| 0.072 µM | O=C(NCc1c(C(=O)O)[nH]c2cc(Cl)cc(Cl)c12)NS(=O)(=O)c1ccccc1 [4,6-dichloro-3-[({[(phenylsulfonyl)amino]carbonyl}amino)methyl]-1H-indole-2-carboxylic acid] |
| 2.9 µM | O=C(O)c1cc2c(Cl)cc(Cl)cc2[nH]1 |
| 0.08 µM | O=C(O)c1[nH]c2cc(Cl)cc(Cl)c2c1Cn1cc(O)n(-c2cc(Cl)cc(Cl)c2)c1=O [4,6-Dichloro-3-[3-(3,5-dichloro-phenyl)-2,4-dioxo-imidazolidin-1-ylmethyl]-1H-indole-2-carboxylic acid] |
